PubChem BioAssay (NCI)
“And” between values parts separate entries of the source, which are not always exact repeats. Equal values may be shown once.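 Following 48 hours of exposure in 96-well plates, responses at five concentrations were used to interpolate endpoints linearly. The concentration for 50% growth inhibition is given as GI50. TGI: concentration producing complete growth inhibition.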

Key:
Test in all cases: NCI anticancer screen, dose series, 48 h
IGROV1 ovarian = system: IGROV1 ovarian
SNB-78 CNS = system: SNB-78 CNS
SK-MEL-28 melanoma = system: SK-MEL-28 melanoma
SNB-19 CNS = system: SNB-19 CNS
KM12 colon = system: KM12 colon
UACC-62 melanoma = system: UACC-62 melanoma
HOP-92 NSCLC = system: HOP-92 NSCLC
RXF 393 renal = system: RXF 393 renal
HL-60(TB) leukemia = system: HL-60(TB) leukemia
A549 NSCLC = system: A549 NSCLC
U251 CNS = system: U251 CNS
ACHN renal = system: ACHN renal
SK-OV-3 ovarian = system: SK-OV-3 ovarian
DMS 114 small cell lung = system: DMS 114 small cell lung
SR leukemia = system: SR leukemia
NCI-H522 lung = system: NCI-H522 lung
OVCAR-5 ovarian = system: OVCAR-5 ovarian
TK-10 renal = system: TK-10 renal
NCI-H23 lung = system: NCI-H23 lung
MOLT-4 leukemia = system: MOLT-4 leukemia
CCRF-CEM leukemia = system: CCRF-CEM leukemia
HCT-116 colon = system: HCT-116 colon
UO-31 renal = system: UO-31 renal
SF-268 CNS = system: SF-268 CNS
EKVX NSCLC = system: EKVX NSCLC
RXF-631 renal = system: RXF-631 renal
SF-295 CNS = system: SF-295 CNS
NCI-H460 lung = system: NCI-H460 lung
786-0 renal = system: 786-0 renal
SF-539 CNS = system: SF-539 CNS
LXFL 529 NSCLC = system: LXFL 529 NSCLC
M19-MEL melanoma = system: M19-MEL melanoma
COLO 205 colon = system: COLO 205 colon
SW-620 colon = system: SW-620 colon
SN12C renal = system: SN12C renal
OVCAR-4 ovarian = system: OVCAR-4 ovarian
K-562 leukemia = system: K-562 leukemia
OVCAR-8 ovarian = system: OVCAR-8 ovarian
KM20L2 colon = system: KM20L2 colon
NCI-H226 lung = system: NCI-H226 lung
HCC-2998 colon = system: HCC-2998 colon
DMS 273 small cell lung = system: DMS 273 small cell lung
SK-MEL-5 melanoma = system: SK-MEL-5 melanoma
DLD-1 colon = system: DLD-1 colon
HT29 colon = system: HT29 colon
RPMI-8226 leukemia = system: RPMI-8226 leukemia
XF 498 CNS = system: XF 498 CNS
MALME-3M melanoma = system: MALME-3M melanoma
OVCAR-3 ovarian = system: OVCAR-3 ovarian
SNB-75 CNS = system: SNB-75 CNS
HOP-62 NSCLC = system: HOP-62 NSCLC
CAKI-1 renal = system: CAKI-1 renal
UACC-257 melanoma = system: UACC-257 melanoma
A498 renal = system: A498 renal
HCT-15 colon = system: HCT-15 colon
SK-MEL-2 melanoma = system: SK-MEL-2 melanoma
M14 melanoma = system: M14 melanoma
LOX IMVI melanoma = system: LOX IMVI melanoma

C=CC1C2=C(C(=O)NCC2)C2OC(O)C3=C(CCNC3=O)C2C1C (stereo unspecified)
TGI (IGROV1 ovarian): > 100 µM
TGI (SNB-78 CNS): > 100 µM
TGI (SK-MEL-28 melanoma): > 100 µM
TGI (SNB-19 CNS): > 100 µM
TGI (KM12 colon): > 100 µM
TGI (UACC-62 melanoma): > 100 µM
TGI (HOP-92 NSCLC): > 100 µM
TGI (RXF 393 renal): > 100 µM
TGI (HL-60(TB) leukemia): > 100 µM
TGI (A549 NSCLC): > 100 µM
TGI (U251 CNS): > 100 µM
TGI (ACHN renal): > 100 µM
TGI (SK-OV-3 ovarian): > 100 µM
TGI (DMS 114 small cell lung): > 100 µM
TGI (SR leukemia): > 100 µM
TGI (NCI-H522 lung): > 100 µM
TGI (OVCAR-5 ovarian): > 100 µM
TGI (TK-10 renal): > 100 µM
TGI (NCI-H23 lung): > 100 µM
TGI (MOLT-4 leukemia): > 100 µM
TGI (CCRF-CEM leukemia): > 100 µM
TGI (HCT-116 colon): > 100 µM
TGI (UO-31 renal): > 100 µM
TGI (SF-268 CNS): > 100 µM
TGI (EKVX NSCLC): > 100 µM
TGI (RXF-631 renal): > 100 µM

CCOC(=O)/N=c1\ss/c(=N\C(=S)N(C)C)n1-c1ccccc1
GI50 (IGROV1 ovarian): > 100 µM
TGI (IGROV1 ovarian): > 100 µM
TGI (SNB-78 CNS): > 100 µM
TGI (SF-295 CNS): > 100 µM
GI50 (SK-MEL-28 melanoma): 28.7 µM
TGI (SK-MEL-28 melanoma): > 100 µM
GI50 (NCI-H460 lung): 35.2 µM
TGI (NCI-H460 lung): > 100 µM
TGI (SNB-19 CNS): > 100 µM
TGI (786-0 renal): > 100 µM
TGI (SF-539 CNS): > 100 µM
TGI (LXFL 529 NSCLC): > 100 µM
GI50 (M19-MEL melanoma): > 100 µM
GI50 (COLO 205 colon): > 100 µM
TGI (COLO 205 colon): > 100 µM
GI50 (KM12 colon): > 100 µM
TGI (KM12 colon): > 100 µM
GI50 (SW-620 colon): > 100 µM
TGI (SW-620 colon): > 100 µM
TGI (UACC-62 melanoma): > 100 µM
GI50 (SN12C renal): > 100 µM
TGI (SN12C renal): > 100 µM
TGI (HOP-92 NSCLC): 94.2 µM
GI50 (OVCAR-4 ovarian): > 100 µM
GI50 (RXF 393 renal): 15.3 µM
TGI (RXF 393 renal): 7.13 µM and 44.2 µM
GI50 (HL-60(TB) leukemia): > 100 µM
TGI (HL-60(TB) leukemia): > 100 µM
TGI (K-562 leukemia): > 100 µM
GI50 (A549 NSCLC): > 100 µM
TGI (A549 NSCLC): > 100 µM
GI50 (OVCAR-8 ovarian): > 100 µM
TGI (OVCAR-8 ovarian): > 100 µM
GI50 (KM20L2 colon): > 100 µM
TGI (KM20L2 colon): > 100 µM
GI50 (NCI-H226 lung): > 100 µM
TGI (NCI-H226 lung): > 100 µM
GI50 (HCC-2998 colon): > 100 µM
TGI (HCC-2998 colon): > 100 µM
GI50 (DMS 273 small cell lung): 77.1 µM
TGI (DMS 273 small cell lung): > 100 µM
GI50 (SK-MEL-5 melanoma): 18.8 µM
TGI (SK-MEL-5 melanoma): > 100 µM
GI50 (DLD-1 colon): > 100 µM
TGI (DLD-1 colon): > 100 µM
TGI (U251 CNS): 71.3 µM
TGI (ACHN renal): > 100 µM
GI50 (SK-OV-3 ovarian): > 100 µM
TGI (SK-OV-3 ovarian): > 100 µM
GI50 (DMS 114 small cell lung): > 100 µM
TGI (HT29 colon): > 100 µM
GI50 (RPMI-8226 leukemia): > 100 µM
TGI (RPMI-8226 leukemia): > 100 µM
GI50 (NCI-H522 lung): 401 nM
TGI (OVCAR-5 ovarian): > 100 µM
TGI (XF 498 CNS): > 100 µM
TGI (TK-10 renal): > 100 µM
TGI (NCI-H23 lung): > 100 µM
GI50 (MALME-3M melanoma): > 100 µM
TGI (MALME-3M melanoma): > 100 µM
GI50 (MOLT-4 leukemia): > 100 µM
TGI (MOLT-4 leukemia): > 100 µM
GI50 (OVCAR-3 ovarian): 23.2 µM
TGI (CCRF-CEM leukemia): > 100 µM
GI50 (SNB-75 CNS): 4.69 µM
TGI (SNB-75 CNS): 28.3 µM
GI50 (HCT-116 colon): > 100 µM
TGI (HCT-116 colon): > 100 µM
TGI (HOP-62 NSCLC): > 100 µM
GI50 (UO-31 renal): > 100 µM
TGI (UO-31 renal): > 100 µM
TGI (CAKI-1 renal): > 100 µM
GI50 (UACC-257 melanoma): > 100 µM
TGI (UACC-257 melanoma): > 100 µM
GI50 (A498 renal): 35 µM
TGI (A498 renal): > 100 µM
GI50 (SF-268 CNS): 44.7 µM
TGI (SF-268 CNS): > 100 µM
GI50 (HCT-15 colon): > 100 µM
TGI (HCT-15 colon): > 100 µM
TGI (EKVX NSCLC): > 100 µM
TGI (SK-MEL-2 melanoma): > 100 µM
GI50 (M14 melanoma): > 100 µM
TGI (M14 melanoma): > 100 µM
TGI (LOX IMVI melanoma): > 100 µM
